Experimental findings from patent publication US8999982B2, “Pharmaceutically active compounds as Axl inhibitors” (Lead Discovery Center GmbH, priority 2010, dated 2015) are described below.

For assay [1], the target named is T1, Axl (Homo sapiens (Human), UniProt P30530). The assay can be described thus: Axl binding assay. Here is the method: Binding of the tracer to the kinase is detected using an EU-labeled anti-tag antibody. […] Binding of an inhibitor to the kinase competes for binding with the tracer, resulting in a loss of FRET-signal. At first a compound according to formula (I) was diluted in 20 mM Hepes pH 8.0, 1 mM DTT, 10 mM MgCl2 and 0.01% Brij35.

Assay [2] has as its target T1, Axl. The assay can be described thus: Cellular Axl phosphorylation assay. The format is cell-based. The note with it: HEK293 cells transfected with Axl cDNA, 1 hour incubation. In a few lines:
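Transiently Axl-transfected HEK293 cells, with a vector-only negative control, were treated with compound for 1 hour on the day after medium change. Axl phosphorylation was quantified by mesoscale detection.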

Molecules are shown by their SMILES.

T1 sequence (P30530 26-894): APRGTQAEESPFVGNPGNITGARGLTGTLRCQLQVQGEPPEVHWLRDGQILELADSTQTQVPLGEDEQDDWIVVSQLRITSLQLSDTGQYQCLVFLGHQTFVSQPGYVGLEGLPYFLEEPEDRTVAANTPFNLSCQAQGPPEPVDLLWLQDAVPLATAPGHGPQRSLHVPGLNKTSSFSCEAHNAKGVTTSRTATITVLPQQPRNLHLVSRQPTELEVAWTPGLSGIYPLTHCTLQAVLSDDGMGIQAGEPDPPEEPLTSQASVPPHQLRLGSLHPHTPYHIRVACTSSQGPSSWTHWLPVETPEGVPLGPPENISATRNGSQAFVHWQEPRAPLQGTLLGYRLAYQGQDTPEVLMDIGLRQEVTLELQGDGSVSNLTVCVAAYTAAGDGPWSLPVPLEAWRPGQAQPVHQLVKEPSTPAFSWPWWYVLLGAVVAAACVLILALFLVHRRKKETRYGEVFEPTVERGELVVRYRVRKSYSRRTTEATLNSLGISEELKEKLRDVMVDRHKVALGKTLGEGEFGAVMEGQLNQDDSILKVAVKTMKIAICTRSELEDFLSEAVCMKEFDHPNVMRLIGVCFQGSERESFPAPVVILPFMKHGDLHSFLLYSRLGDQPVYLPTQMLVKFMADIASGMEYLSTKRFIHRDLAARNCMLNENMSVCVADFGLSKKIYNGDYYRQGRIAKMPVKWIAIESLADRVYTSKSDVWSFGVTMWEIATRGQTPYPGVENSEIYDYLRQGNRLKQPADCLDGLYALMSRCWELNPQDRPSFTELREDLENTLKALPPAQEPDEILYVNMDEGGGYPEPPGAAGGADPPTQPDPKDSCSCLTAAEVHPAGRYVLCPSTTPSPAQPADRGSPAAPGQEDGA

As usually defined, the IC50 is the concentration at which inhibition is half-maximal. Low values mean inhibition by little substance, high ones a need for much substance. In the case of `COc1cc2c(Oc3ccc(NC(=O)c4nn(-c5ccc(F)cc5)cc4OCCN(C)C)cc3F)ccnc2cc1OCCCN1CCOCC1` [Example 48, 4-(2-dimethylaminoethoxy)-N-[3-fluoro-4-[[6-methoxy-7-(3-morpholinopropoxy)-4-quinolyl]oxy]phenyl]-1-(4-fluorophenyl)pyrazole-3-carboxamide], the IC50 in assay [1] and in assay [2] was under 500 nM in each case.
Consider `CCOc1cn(-c2ccc([N+](=O)[O-])cc2)nc1C(=O)Nc1ccc(Oc2ccnc3cc(OC)c(OC)cc23)cn1` [Example 98, N-(5-((6,7-dimethoxyquinolin-4-yl)oxy)pyridin-2-yl)-4-ethoxy-1-(4-nitrophenyl)-1H-pyrazole-3-carboxamide], for which the IC50 is 500 to 5000 nM in assay [1] and under 500 nM in assay [2].
Consider `COc1cc2c(Oc3ccc(NC(=O)c4nc(-c5ccccc5)cs4)nc3)ccnc2cc1OCC1CCNCC1` [Example 101, N-(5-((6-methoxy-7-(piperidin-4-ylmethoxy)quinolin-4-yl)oxy)pyridin-2-yl)-4-phenylthiazole-2-carboxamide], for which the IC50 in assay [1] and in assay [2] was under 500 nM in each case.
Regarding `CCOc1cn(-c2ccc(F)cc2C)nc1C(=O)Nc1ccc(Oc2ccnc3cc(OC)c(OC)cc23)c(Cl)c1` [Example 35, N-[3-chloro-4-[(6,7-dimethoxy-4-quinolyl)oxy]phenyl]-4-ethoxy-1-(4-fluoro-2-methyl-phenyl)pyrazole-3-carboxamide], the IC50 in assay [1] and in assay [2] was under 500 nM throughout.
Consider `CCOc1cn(-c2ccc(F)cc2C)nc1C(=O)Nc1ccc(Oc2ccnc3cc(OCC4CCN(CC(C)C)CC4)c(OC)cc23)c(F)c1` [Example 83, 4-ethoxy-N-[3-fluoro-4-[[7-[(1-isobutyl-4-piperidyl)methoxy]-6-methoxy-4-quinolyl]oxy]phenyl]-1-(4-fluoro-2-methyl-phenyl)pyrazole-3-carboxamide], for which the IC50 in assay [1] and in assay [2] was under 500 nM in each case.
For `COc1cc2nccc(Oc3ccc(NC(=O)c4nn(-c5ccc(F)cc5)cc4OC(C)C)cc3C)c2cc1OC` [Example 29, N-[4-[(6,7-dimethoxy-4-quinolyl)oxy]-3-methyl-phenyl]-1-(4-fluorophenyl)-4-isopropoxy-pyrazole-3-carboxamide], the IC50 in assay [1] and in assay [2] was under 500 nM each time.
Turning to `CCOc1cn(-c2ccc(F)cc2C)nc1C(=O)Nc1ccc(Oc2ccnc3cc(OCCCN4CCN(C)CC4)c(OC)cc23)c(F)c1` [Example 57, 4-ethoxy-N-[3-fluoro-4-[[6-methoxy-7-[3-(4-methylpiperazin-1-yl)propoxy]-4-quinolyl]oxy]phenyl]-1-(4-fluoro-2-methyl-phenyl)pyrazole-3-carboxamide], the IC50 in assay [1] and in assay [2] was under 500 nM in each case.
Regarding `COc1cc2c(Oc3ccc(NC(=O)c4csc(-c5ccccc5)n4)cc3F)ccnc2cc1OCCCN1CCOCC1` [Example 38, N-[3-fluoro-4-[[6-methoxy-7-(3-morpholinopropoxy)-4-quinolyl]oxy]phenyl]-2-phenyl-thiazole-4-carboxamide], the IC50 in assay [1] and in assay [2] was under 500 nM each time.
As for `COc1cc2c(Oc3ccc(NC(=O)c4nc(-c5ccccc5)oc4C)cc3F)ccnc2cc1OCC1CCNCC1` [Example 80, N-[3-fluoro-4-[[6-methoxy-7-(4-piperidylmethoxy)-4-quinolyl]oxy]phenyl]-5-methyl-2-phenyl-oxazole-4-carboxamide], the concentration for half-maximal inhibition (IC50) in assay [1] and in assay [2] was under 500 nM in each case.
Consider `COc1cc2c(Oc3ccc(NC(=O)c4cc(C)n(C(C)(C)C)n4)cc3F)ccnc2cc1OCCCN1CCOCC1` [Example 41, 1-tert-butyl-N-[3-fluoro-4-[[6-methoxy-7-(3-morpholinopropoxy)-4-quinolyl]oxy]phenyl]-5-methyl-pyrazole-3-carboxamide], for which the IC50 in assay [1] and in assay [2] was under 500 nM in each case.
